Measurements published in US10835513B2, “Methods and treatments for the learning and memory deficits associated with Noonan syndrome” (The Regents of the University of California, priority 2013, dated 2020).

Key:
Nf1^+/− mutant mice = conditions: previous study (ref. 21); cited from earlier work
[1] = tested on: hippocampal slices of Ptpn11^D61G/+ mice; assay: 5 TBS-induced LTP in hippocampal slices after systemic administrations of lovastatin; format: in vivo
Method: FIG. 6 are graphs showing that Lovastatin treatment reverses spatial learning and memory and LTP deficits in Ptpn11^D61G/+ mice. […] Left, Representative immunoblot showing p-Erk (upper) and total Erk (lower) levels in Ptpn11^D61G/+ mice and WT. Hippocampi were dissected 6 hr after the 4th day of lovastatin injection (subcutaneous (s.c.) injections, 10 mg/kg). Right, Bar graph displaying normalized p-Erk levels (mean±s.e.m.). n=7-8 per group. t-test, *P<0.05. […] Two-way ANOVA followed by Bonferroni post-test, WT/Veh vs. Ptpn11^D61G/+/Veh, *P<0.05, **P<0.01; Ptpn11^D61G/+/Veh vs. Ptpn11^D61G/+/Lova, +P<0.05. […]
For extracellular recordings of field excitatory postsynaptic potentials (fEPSP), sagittal slices (400 μm) were prepared with a vibratome (VT1000S, Leica) in ice-cold artificial cerebrospinal fluid (ACSF). […] Recording was performed in a submerged chamber perfused with ACSF (32° C.). fEPSPs were recorded with platinum-iridium electrodes placed in the CA1 stratum radiatum. […] Baseline responses were measured with stimulation (0.017 Hz, 0.1 ms pulse duration) at an intensity (typically 20-30 μA) that evoked a response that was approximately one third of the maximum evoked response. […] Initial fEPSP slopes were measured and normalized to the average of baseline (Clampfit 10.2).

Erk = assay: p-Erk immunoblot of Ptpn11^D61G/+ hippocampi after lovastatin injection; format: in vivo, mice
Method: (§1) FIG. 6 are graphs showing that Lovastatin treatment reverses spatial learning and memory and LTP deficits in Ptpn11^D61G/+ mice. […] Left, Representative immunoblot showing p-Erk (upper) and total Erk (lower) levels in Ptpn11^D61G/+ mice and WT. Hippocampi were dissected 6 hr after the 4th day of lovastatin injection (subcutaneous (s.c.) injections, 10 mg/kg). Right, Bar graph displaying normalized p-Erk levels (mean±s.e.m.). n=7-8 per group. t-test, *P<0.05. […] Two-way ANOVA followed by Bonferroni post-test, WT/Veh vs. Ptpn11^D61G/+/Veh, *P<0.05, **P<0.01; Ptpn11^D61G/+/Veh vs. Ptpn11^D61G/+/Lova, +P<0.05. […] Two-way ANOVA with genotype as between-subjects factor and drug treatment as within-subjects factor, effect of genotype: F(1, 45)=19.79, ***P<0.0001, interaction: F (1,45)=0.4489, P=0.506.
As in AAV-PTPN11^D61G-infected mice, p-Erk levels were increased in Ptpn11^D61G/+ hippocampi (FIG. 6, panel a). […] Importantly, the spatial learning performance of lovastatin-treated Ptpn11^D61G/+ mice was indistinguishable from controls (FIG. 6, panels d, e).
Dissected hippocampi were homogenized in protein lysis buffer (10 mM Tris-Cl pH 6.8, 1.6% SDS) containing protease and phosphatase inhibitor cocktails (Sigma). Supernatants were collected after centrifugation and the protein concentration was determined using a BCA assay kit (Thermo). […]

Ptpn11^D61G/+ mice = assay: Morris water maze (hidden platform) in Ptpn11^D61G/+ mice treated with lovastatin; format: in vivo
Method: as §1
SL327 (Tocris) was dissolved in DMSO (16 mg/ml) and was injected intraperitoneally once daily, 30 min before the water maze experiment at a dose of 32 mg/kg. The volume of a single injection was under 80 μl. Lovastatin (Mevinolin, Sigma) was prepared as previously described^21. Briefly, lovastatin was dissolved in ethanol (final concentration of 8%) and 1N NaOH was added to convert mevinolin to the sodium salt. The pH of the final solution (4 mg/ml) was adjusted to 7.5 with HCl. The Vehicle solution was prepared with the same procedure. Lovastatin was administered daily (subcutaneous injection, 10 mg/kg) for 3 days before the first training day of the water maze and 6 hr before training every day thereafter.
In the hidden platform-version of Morris water maze, mice were trained with two blocks of 2 trials (ITI=1 min) spaced about 45 min apart. In each training trial, mice were released from a different starting position and then were allowed to search for the escape platform for 60 s. The platform was submerged 1 cm under the surface of the water. Once a mouse found the platform, it was left there for 15 s. […] Mice were trained for 5-7 consecutive days. Memory was assessed in probe trials that were given after completion of training as described in the main text. During the probe trial, the platform was removed and the mice were allowed to search for it for 60 s. Data were acquired and analyzed using WaterMaze software (Actimetrics).

[2] = Ptpn11^D61G/+ mice, lovastatin 10 mg/kg s.c.

In the case of `CC[C@H](C)C(=O)O[C@H]1C[C@@H](C)C=C2C=C[C@H](C)[C@H](CC[C@@H]3C[C@@H](O)CC(=O)O3)[C@H]21` [Lovastatin], the “spatial learning problems, attention deficits and pre-pulse inhibition deficits” value (Nf1^+/− mutant mice) is listed as “can rescue”, the “Average % fEPSP changes (last 10 minutes of recordings), 5 TBS-induced LTP” value ([1]; Ptpn11^D61G/+ mice) is listed as 154.2±6.88% and the “Average % fEPSP changes (last 10 minutes of recordings), 5 TBS-induced LTP” value ([1]; WT mice) is listed as 150.7±5.49%. For the same molecule, the “normalized p-Erk levels in hippocampi” value (Erk; Ptpn11^D61G/+ hippocampi, 6 hr after the 4th day of lovastatin s.c. 10 mg/kg) was “reverses increased Erk activation”, the “Erk activation in hippocampi” value (Erk; WT controls, lovastatin s.c. 10 mg/kg) was “did not affect Erk activation in controls” and the “proximity to the target platform, probe trial” value (Ptpn11^D61G/+ mice; [2]) was 39.82±2.53 cm. For the same molecule, the “time in the target quadrant, probe trial” value (Ptpn11^D61G/+ mice; [2]) was 45.70±4.43%, the “latency to the hidden platform during training sessions” value (Ptpn11^D61G/+ mice; Ptpn11^D61G/+ mice, lovastatin 10 mg/kg s.c. daily) was “comparable latency to WT mice” and the “preference for the target quadrant, quadrant occupancy analysis” value (Ptpn11^D61G/+ mice; Ptpn11^D61G/+/Lova group, TQ vs. other quadrants) was “selectively searched for the target quadrant”. For the same molecule, the “any measure of learning in WT animals” value (Ptpn11^D61G/+ mice; WT animals, lovastatin at the concentration used (10 mg/kg)) was “had no effect on any measure of learning” and the “proximity to the target platform, probe trial” value (Ptpn11^D61G/+ mice; WT mice, lovastatin 10 mg/kg s.c.) was 35.28±3.26 cm.
